Experimental data: publication PMC4833300, “Identification of Trypanocidal Activity for Known Clinical Compounds Using a New Trypanosoma cruzi Hit-Discovery Screening Cascade” (PLoS Neglected Tropical Diseases, 2016)
Read-outs that look alike come from different tables or passages of the source.

Legend:
[1] = system: intracellular T. cruzi amastigotes; test: Primary high-content intracellular T. cruzi amastigote assay; assay type: cell-based, Trypanosoma cruzi (Silvio X10/7 A1) in Vero cells; settings: for EC50: Trypanosoma cruzi, read-out: pEC50 (cruzi) (converted)
Description: (§1) The compounds tested were obtained from the NIH (Clinical Collection) and from SelleckChem (FDA-approved drug library). Compounds were dispensed into black 384-well assay plates (Corning) by acoustic dispensing (LabCyte ECHO). […] Potencies are reported as pEC50 (-LOG(EC50[M])).
(§2) For the primary intracellular assay the infection conditions were chosen so that no trypomastigote egress occurs during the compound incubation time. First, Vero cells were infected overnight with tissue culture derived T. cruzi trypomastigotes in T225 tissue culture flasks (MOI 5). Next, any remaining free trypomastigotes were washed away with serum free MEM and the infected Vero cells were harvested by trypsinisation. The infected Vero cells were then plated into 384-well plates containing the compounds to be tested, at 4000 cells per well in MEM media with 1% FCS. […] The plates were imaged on a Perkin Elmer Operetta high-content imaging system using a 20x objective. Images were analysed using the Columbus system (Perkin Elmer). The algorithm for the primary assay first identified the Vero nuclei followed by demarcation of the cytoplasm and identification of intracellular amastigotes. This algorithm reported mean number of parasites per Vero cell and total number of Vero cells. Data analysis was as described in [22]. […] Hits from the primary screen were selected based on the following criteria: T. cruzi activity (percent inhibition) > (median T. cruzi percent inhibition + 3 x robust Standard Deviation) and Vero activity (percent inhibition) < (median percent Vero inhibition + 3 x robust Standard Deviation).

Vero cells = test: Host cell toxicity read-out of the primary assay (Vero cell count); assay type: cell-based; settings: for EC50: Chlorocebus sabaeus, Vero, read-out: pEC50 (Vero) (converted)
Description: as §1, §2

intracellular T. cruzi [2] = test: Static-cidal assay (percent infected Vero cells, 96 h); assay type: cell-based, Trypanosoma cruzi (Silvio X10/7 A1) in Vero cells; settings: Trypanosoma cruzi, Vero; 96 h; 0% = starting level of infection, 100% = 50μM Nifurtimox at 96h; only from concentrations not toxic to the host cells; read-out: MAX PI (SC), Maximum Percent Inhibition in the static cidal assay
Description: The secondary static-cidal assay uses the same protocol as the standard assay with the following changes: infection is done at MOI 10, and infected Vero cells are incubated 88h at 37°C in presence of 5% CO2 prior to trypsinisation and plating. Four hours after plating a control plate (no compounds) was fixed with formaldehyde as described above. Compound containing plates were fixed after incubation for 96 hours. Compounds are run as ten point dose response curves in triplicate. The algorithm for the secondary assay was similar to the primary assay but reported percent infected Vero cells instead of the mean number of parasites.
To assess screening hits for their ability to be cytocidal rather than cytostatic or growth slowing we developed a medium throughput (400 compounds / batch) assay to predict cidality of compounds against intracellular T. cruzi. […] Instead we developed an algorithm that assesses whether a Vero cell is infected or not, and we used the percentage of infected cells as primary measurement for the static-cidal assay. In order to readily identify cidal compounds we normalised the raw data using the starting level of infection as 0% effect and the final level of infection in presence of 50μM Nifurtimox as 100% effect control.

intracellular T. cruzi [3] = test: Rate-of-kill assay (static-cidal assay in timecourse format); assay type: cell-based, Trypanosoma cruzi (Silvio X10/7 A1) in Vero cells; settings: Trypanosoma cruzi; -LOG(MCC[M]); minimum cidal concentration, lowest concentration clearing at least half as many Vero cells as Nifurtimox (50μM) within 96 h; read-out: pMCC (RoK) (converted)
Description: The rate-of-kill assay uses the same protocol as the static-cidal assay but plates are incubated for 24, 48, 72 and 96 hours prior to fixing. Percent infected data is plotted as a time-course for each compound at every concentration. The minimum cidal concentration (MCC) is defined as the lowest concentration of compound that clears at least half as many Vero cells of intracellular parasites as Nifurtimox (50μM) within the timeframe of the assay.
To obtain rate-of-kill information we carried out the static-cidal assay in timecourse format (Fig 4A), with timepoints taken every 24h.

[4] = hits of the bio-actives screen, 10-point dose-response, top concentration 50μM, 72h

| SMILES | EC50 [1, 4] [µM] | EC50 (Vero cells; [4]) [µM] | also measured |
| --- | --- | --- | --- |
| CC(C)(C)C(=O)OCOP(=O)(COCCn1cnc2c(N)ncnc21)OCOC(=O)C(C)(C)C [Adefovir Dipivoxil] | 6.31 | 15.8 | – |
| CCOC(=O)c1cncn1[C@H](C)c1ccccc1 [Etomidate] | – | – | EC50 ([1]; 72 h): 5.01 µM; EC50 (Vero cells; 72 h): 50.1 µM |
| COCCOC(=O)C1=C(C)NC(C)=C(C(=O)OC/C=C/c2ccccc2)C1c1cccc([N+](=O)[O-])c1 (stereo not shown) [Cilnidipine] | 1.26 | 15.8 | – |
| C=CCc1ccc(O)c(-c2ccc(O)c(CC=C)c2)c1 [Honokiol] | 2 | 7.94 | – |
| CN(C)CC/C=C1/c2ccccc2Sc2ccc(Cl)cc21 [Chlorprothixene] | 3.16 | 15.8 | – |
| CN1CCN(CC/C=C2/c3ccccc3Sc3ccc(S(=O)(=O)N(C)C)cc32)CC1 [Thiothixene] | 5.01 | 7.94 | – |
| CCOC(=O)C1=C(C)NC(C)=C(C(=O)OC)C1c1cccc(Cl)c1Cl (stereo not shown) [Felodipine] | 5.01 | 15.8 | – |
| Nc1ncnc2c1ncn2[C@@H]1O[C@H](CO)C[C@H]1O [3'-deoxydenosine] | – | – | pEC50 (cruzi) [1, 4]: 5.6; pEC50 (Vero) (Vero cells; [4]): 4.3 |
| Cc1ccc(NC(=O)c2ccc(CN3CCN(C)CC3)cc2)cc1Nc1nc(-c2cccnc2)cs1 [Masitinib] | 2 | 7.94 | – |
| CCOc1nc2cccc(C(=O)OC(C)OC(=O)OC3CCCCC3)c2n1Cc1ccc(-c2ccccc2-c2nnn[nH]2)cc1 (stereo not shown) [Candesartan cilexetil] | 6.31 | 12.6 | – |
| CN(C)[C@@H](CCOc1cccc2ccccc12)c1ccccc1 [Dapoxetine] | 5.01 | 15.8 | – |
| COc1cc2nc(N3CCN(C(=O)C4COc5ccccc5O4)CC3)nc(N)c2cc1OC (stereo not shown) [Doxazosin] | 5.01 | 15.8 | – |
| C[C@]12Cc3c[nH]nc3C[C@@H]1CC[C@@H]1[C@@H]2CC[C@@]2(C)[C@H]1CC[C@]2(C)O [Stanozolol] | – | – | EC50 ([1]; 72 h): 5.01 µM; EC50 (Vero cells; 72 h): 15.8 µM |
| CN(C)CCCN1c2ccccc2Sc2ccc(Cl)cc21 [Chlorpromazine] | 3.98 | 10 | – |
| CCCCC(=O)O[C@H]1CC[C@H]2[C@@H]3CCc4cc(O)ccc4[C@H]3CC[C@]12C [17β-estradiol 17-valerate] | – | – | pEC50 (cruzi) [1, 4]: 5.0; pEC50 (Vero) (Vero cells; [4]): 4.9 |
| CC(COc1ccccc1Cc1ccccc1)N1CCCCC1 (stereo not shown) [Benproperine] | 1.26 | 15.8 | – |
| Clc1ccc(COC(Cn2ccnc2)c2ccc(Cl)cc2Cl)cc1 (stereo not shown) [Econazole] | – | – | Emax (intracellular T. cruzi [2]): 63%; MCC (intracellular T. cruzi [3]): 6.31e-08 M |
| CCC(C)(C)c1ccc(CC(C)CN2C[C@@H](C)O[C@@H](C)C2)cc1 (stereo partly shown) [Amorolfine] | 10 | 15.8 | – |
| CNC1CC(c2ccc(Cl)c(Cl)c2)c2ccccc21 (stereo not shown) [Indatraline] | – | – | EC50 ([1]; 72 h): 5.01 µM; EC50 (Vero cells; 72 h): 12.6 µM |
| C[C@@H]1CN(CCCn2c3ccccc3c3ccccc32)C[C@H](C)N1 [Rimcazole] | 5.01 | 10 | – |
| NC(=O)N/N=C/c1ccc([N+](=O)[O-])o1 [Nitrofurazone] | 1 | 15.8 | – |
| COC(=O)[C@H]1[C@H]2C[C@@H]3c4[nH]c5cc(OC)ccc5c4CCN3C[C@H]2C[C@@H](OC(=O)c2cc(OC)c(OC)c(OC)c2)[C@@H]1OC [Reserpine] | 3.98 | 50.1 | – |
| CNCC[C@H](Oc1cccc2ccccc12)c1cccs1 [Duloxetine] | – | – | EC50 ([1]; 72 h): 6.31 µM; EC50 (Vero cells; 72 h): 15.8 µM |

| SMILES | EC50 [1, 4] [µM] | EC50 (Vero cells; [4]) [µM] | also measured |
| --- | --- | --- | --- |
| COC(=O)C1=C(C)NC(C)=C(C(=O)OCCN(C)Cc2ccccc2)C1c1cccc([N+](=O)[O-])c1 (stereo not shown) [Cardene] | 3.98 | 15.8 | – |
| Oc1cc(Cl)ccc1Oc1ccc(Cl)cc1Cl [Triclosan] | – | – | EC50 ([1]; 72 h): 7.94 µM; EC50 (Vero cells; 72 h): 10 µM |
| C[C@]12C=CC(=O)N[C@@H]1CC[C@@H]1[C@@H]2CC[C@]2(C)[C@@H](C(=O)Nc3cc(C(F)(F)F)ccc3C(F)(F)F)CC[C@@H]12 [Dutasteride] | – | – | EC50 ([1]; 72 h): 15.8 µM; EC50 (Vero cells; 72 h): 15.8 µM |
| CCOC(=O)C1(c2ccccc2)CCN(CCC(C#N)(c2ccccc2)c2ccccc2)CC1 [Diphenoxylate] | – | – | EC50 ([1]; 72 h): 2.51 µM; EC50 (Vero cells; 72 h): 15.8 µM |
| c1ccc2c(c1)Nc1ccccc1S2 [Phenothiazine] | – | – | EC50 ([1]; 72 h): 2.51 µM; EC50 (Vero cells; 72 h): 15.8 µM |
| O=C1[C@H]2CCCC[C@H]2C(=O)N1CCCCN1CCN(c2nsc3ccccc23)CC1 [Perospirone] | 6.31 | 15.8 | – |
| COCCOC(=O)C1=C(C)NC(C)=C(C(=O)OC(C)C)C1c1cccc([N+](=O)[O-])c1 (stereo not shown) [Nimodipine] | 2 | 15.8 | – |
| CN1CCN(c2nc3cc(C(F)(F)F)ccc3n3cccc23)CC1.O=C(O)/C=C\C(=O)O.O=C(O)/C=C\C(=O)O [CGS 12066B] | – | – | pEC50 (cruzi) [1, 4]: 5.5; pEC50 (Vero) (Vero cells; [4]): 4.8 |
| C=C1[C@H](CO)[C@@H](O)C[C@@H]1n1cnc2c(=O)[nH]c(N)nc21 [Entecavir] | 3.98 | 15.8 | – |
| Fc1ccc([C@@H]2CCNC[C@H]2COc2ccc3c(c2)OCO3)cc1 [Paroxetine] | 5.01 | 12.6 | – |
| C=C(C)CN1CC[C@]23c4c5ccc(O)c4O[C@H]2c2[nH]c4ccccc4c2C[C@@]3(O)C1C5.Cl.O [SDM25N] | – | – | pEC50 (cruzi) [1, 4]: 5.2; pEC50 (Vero) (Vero cells; [4]): 4.8 |
| C[C@]12CC[C@@H]3c4ccc(O)cc4C[C@@H](CCCCCCCCC[S+]([O-])CCCC(F)(F)C(F)(F)F)[C@H]3[C@@H]1CC[C@@H]2O (stereo partly shown) [Fulvestrant] | 5.01 | 15.8 | – |
| Clc1ccccc1C(c1ccccc1)(c1ccccc1)n1ccnc1 [Clotrimazole] | – | – | Emax (intracellular T. cruzi [2]): 60%; MCC (intracellular T. cruzi [3]): 2.51e-08 M |
| C#C[C@]1(O)CC[C@H]2[C@@H]3CCC4=Cc5oncc5C[C@]4(C)[C@H]3CC[C@@]21C [Danazol] | 3.98 | 15.8 | – |
| COc1ccccc1OCCNCC(O)COc1cccc2[nH]c3ccccc3c12 (stereo not shown) [Carvedilol] | 5.01 | 15.8 | – |
| CCCCC/C=C\C/C=C\C/C=C\C/C=C\CCCC(=O)Nc1ccc(O)cc1 [N-arachidonoylaminophenol] | – | – | pEC50 (cruzi) [1, 4]: 5.7; pEC50 (Vero) (Vero cells; [4]): 4.8 |
| C[C@@H](c1ncncc1F)[C@](O)(Cn1cncn1)c1ccc(F)cc1F [Voriconazole] | 0.0251 | 50.1 | Emax (intracellular T. cruzi [2]): 70% |
| CO[C@H]1/C=C/O[C@@]2(C)Oc3c(C)c(O)c4c(O)c(c(/C=N/N5CCN(C6CCCC6)CC5)c(O)c4c3C2=O)NC(=O)/C(C)=C\C=C\[C@H](C)[C@H](O)[C@@H](C)[C@@H](O)[C@@H](C)[C@H](OC(C)=O)[C@@H]1C [Rifapentine] | 10 | 15.8 | – |
| COC(=O)C1=C(C)NC(C)=C(C(=O)OC2CCCN(Cc3ccccc3)C2)C1c1cccc([N+](=O)[O-])c1 (stereo not shown) [Benidipine] | 2 | 10 | – |
| Cc1cccc(CN2CCN(C(c3ccccc3)c3ccc(Cl)cc3)CC2)c1 (stereo not shown) [Meclizine] | 5.01 | 20 | – |
| CCOC(=O)C1=C(C)NC(C)=C(C(=O)OC)C1c1cccc([N+](=O)[O-])c1 (stereo not shown) [Nitrendipine] | 3.98 | 15.8 | – |
| COc1ccc(CN2CCN(C(c3ccc(F)cc3)c3ccc(F)cc3)CC2)c(OC)c1OC [Lomerizine] | 3.98 | 15.8 | – |
